Experimental data: patent US5134140A, “Psychotropic benzofuran derivatives” (American Home Products Corporation, priority 1991, dated 1992)
Entries after “also recorded” stand apart in the source; their conditions may differ. Where two headings read alike, the source gives them in different places.

Assays:
dopamine D2 receptor = molecular target: T1, dopamine D2 receptor (Rattus norvegicus, UniProt P61169); assay: D-2 binding, 3H-spiroperidol, homogenized limbic brain tissue
T1 construct: from tissue; host or cells: homogenized limbic brain tissue
T1 sequence (P61169 whole entry): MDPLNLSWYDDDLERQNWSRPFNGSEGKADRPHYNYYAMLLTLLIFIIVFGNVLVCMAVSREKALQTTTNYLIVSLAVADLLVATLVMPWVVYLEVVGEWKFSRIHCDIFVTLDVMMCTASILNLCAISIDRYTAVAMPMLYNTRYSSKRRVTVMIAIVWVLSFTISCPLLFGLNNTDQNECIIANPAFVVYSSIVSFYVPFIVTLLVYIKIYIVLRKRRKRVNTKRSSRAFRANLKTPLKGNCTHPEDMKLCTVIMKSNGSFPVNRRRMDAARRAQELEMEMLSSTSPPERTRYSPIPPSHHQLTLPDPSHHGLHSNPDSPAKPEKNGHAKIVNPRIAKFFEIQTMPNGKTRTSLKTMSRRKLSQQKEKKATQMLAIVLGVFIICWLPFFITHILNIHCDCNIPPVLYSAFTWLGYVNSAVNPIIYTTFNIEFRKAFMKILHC
Protocol: Modest affinity for the dopamine D2 receptor was established by the standard experimental test procedure of Fields, et al., Brain Res., 136, 578 (1977) and Yamamura et al., eds., Neurotransmitter Receptor Binding, Raven Press, N.Y. (1978) wherein homogenized limbic brain tissue is incubated with ^3 H-spiroperidol and various concentrations of test compound, filtered and washed and shaken with Hydrofluor scintillation cocktail (National Diagnostics) and counted in a Packard 460 CD scintillation counter.

[1] = molecular target: T2, serotonin 5-HT1A receptor (Rattus norvegicus, UniProt P19327); assay: 5-HT1A binding, displacement of [3H] 8-OHDPAT
T2 construct: following the procedure of Hall et al., J. Neurochem; 44, 1685 (1985); from tissue
T2 sequence (P19327 1-422): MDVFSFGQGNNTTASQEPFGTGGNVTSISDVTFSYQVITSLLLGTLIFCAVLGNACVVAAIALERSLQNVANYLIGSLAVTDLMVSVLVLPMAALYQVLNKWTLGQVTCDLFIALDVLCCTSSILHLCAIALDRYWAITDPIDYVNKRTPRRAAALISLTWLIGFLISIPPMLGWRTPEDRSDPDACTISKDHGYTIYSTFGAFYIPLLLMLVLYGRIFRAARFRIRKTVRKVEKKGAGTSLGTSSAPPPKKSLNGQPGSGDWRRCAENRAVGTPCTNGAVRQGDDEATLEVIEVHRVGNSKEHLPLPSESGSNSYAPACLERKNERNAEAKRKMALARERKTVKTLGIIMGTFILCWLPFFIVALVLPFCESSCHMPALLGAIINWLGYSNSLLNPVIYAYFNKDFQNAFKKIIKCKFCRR
Text: High affinity for the serotonin 5-HT1A receptor was established by testing the claimed compound's ability to displace [^3 H] 8-OHDPAT (dipropylaminotetralin) from the 5-HT1A serotonin receptor following the procedure of Hall et al., J. Neurochem. 44, 1685 (1985). […] The anxiolytic activity of buspirone is believed to be, at least partially, due to its 5-HT1A receptor affinity (Vander Maclen et al., Eur. J. Pharmacol. 1986, 129 (1-2) 133-130).

5-HT1A receptor = details: cited from earlier work
serotonin syndrome = assay: ability to produce or antagonize the serotonin syndrome in rats; type: in vivo, male Sprague-Dawley CD rats; details: for ED50: Rattus norvegicus
Protocol: Certain of the compounds of this invention were also compared to buspirone in their ability to either produce or antagonize the serotonin syndrome according to the procedure of Smith and Peroutka, Pharmacol. Biochem. Behav. 24:1513-1519, 1986, in which 250-350 g male Sprague-Dawley CD rats (Charles River) are given either test compound or vehicle and placed individually into plexiglass observation cages. Agonist activity of the compound is determined by scoring for the presence of the serotonin syndrome (forepaw treading, head weaving, tremor, hindlimb abduction, flattened body posture, and Straub tail) during the first 15 minutes after compound administration. Antagonist activity is then determined by a challenge with either of the 5-HT1A agonists 5-methoxy-N,N-dimethyltryptamine (5-MeODMT) or 8-hydroxydipropylaminotetralin.

[2] = molecular target: T2, serotonin 5-HT1A receptor; details: buspirone standard; cited from earlier work
[3] = antagonist activity, challenge with 5-MeODMT or 8-hydroxydipropylaminotetralin, agonist not specified for these values, read-out: ED50, antagonize the serotonin syndrome

Row | inhibition at 0.1 µM [1] [%] | Compound | other results
1 | 87 | COc1cccc2cc(CNCCNC(=O)C34CCC(CC3=O)C4(C)C)oc12 (single isomer, unassigned) [Example 5, N-[2-[[(7-Methoxy-2-benzofuranyl)methyl]amino]ethyl]-7,7-dimethyl-2-oxobicyclo[2.2.1]heptane-1-carboxamide] | inhibition at 1 µM (dopamine D2 receptor): 4%
2 |  | O=C1CC2(CCCC2)CC(=O)N1CCCCNCC1COc2ccccc2O1 (single isomer, unassigned; (-)) [(-)-MDL 72832] | binding at the 5-HT1A receptor site relative to the dextrorotary isomer (5-HT1A receptor; (-)-isomer vs dextrorotary isomer): 32 times
3 | 31 | COc1cccc2cc(CNCCN3C(=O)C4C5C=CC(C6C=CC65)C4C3=O)oc12 (stereo not shown) [Example 1, 3a, 4,4a, 6a, 7,7a-Hexahydro-2-[2-[[(7-methoxy-2-benzofuranyl)methyl]amino]ethyl]-4,7-etheno-1H-cyclobut[f]isoindole-1,3(2H)-dione] | 
4 | 100 | COc1cccc2cc(CNCCNC(=O)C34CC5CC(CC(C5)C3)C4)oc12 [Example 2, N-[2-[[(7-Methoxy-2-benzofuranyl)methyl]amino]ethyl]tricyclo[3.3.1.1^3,7]decane-1-carboxamide] | inhibition at 1 µM (dopamine D2 receptor): 29%; IC50 [1]: 0.5 nM; ED50 (serotonin syndrome; [3]): 11.7 mg/kg
5 | 61 | COc1cccc2cc(CNCCN3C(=O)CC4(CCCC4)CC3=O)oc12 [Example 3, 8-[2-[[(7-Methoxy-2-benzofuranyl)methyl]amino]ethyl]-8-azaspiro[4.5]decane-7,9-dione] | inhibition at 1 µM (dopamine D2 receptor): 72%
6 | 59 | COc1cccc2cc(CNCCN3C(=O)C4CC(C3=O)C3C4C4C5CC6C4C6C53)oc12 (stereo not shown) [Example 4, Decahydro-3-[2-[[(7-methoxy-2-benzofuranyl)methyl]amino]ethyl]-1,5-methano-6,7,9-metheno-2H-pentaleno[1,2-d]azepine-2,4(3H)-dione] | inhibition at 1 µM (dopamine D2 receptor): 49%
7 | 87 | COc1cccc2cc(CNCCNC(=O)c3ccc(F)cc3)oc12 [Example 6] | inhibition at 1 µM (dopamine D2 receptor): 70%
8 | 99 | COc1cccc2cc(CNCCNC(=O)C34CC5CC(CC3C5)C4)oc12 [Example 7, N-[2-[[(7-Methoxy-2-benzofuranyl)methyl]amino]ethyl]hexahydro-2,5-methanopentalene-3a(1H)-carboxamide] | ED50 (serotonin syndrome; [3]): 15.4 mg/kg
9 | 92 | COc1cccc2cc(CNCCNC(=O)C3(C)CCCCC3)oc12 [Example 8, N-[2-[[(7-Methoxy-2-benzofuranyl)methyl]amino]ethyl]-1-methyl-1-cyclohexanecarboxamide] | 
10 | 63 | COc1ccc2cc(CNCCNC(=O)C34CC5CC(CC(C5)C3)C4)oc2c1OC [Example 9, N-[2-[[(6,7-Dimethoxy-2-benzofuranyl)methyl]amino]ethyl]tricyclo[3.3.1.1^3,7]decane-1-carboxamide] | 
11 | 90 | COc1cccc2cc(CN(C)CCNC(=O)C34CC5CC(CC(C5)C3)C4)oc12 [Example 10, N-[2-[[(7-Methoxy-2-benzofuranyl)methyl]methylamino]ethyl]tricyclo[3.3.1.1^3,7]decane-1-carboxamide] | IC50 [1]: 9 nM
12 | 38 | COc1cccc2cc(CNCCNC(=O)C(C)(C)C)oc12 [Example 11, N-[2-[[(7-Methoxy-2-benzofuranyl)methyl]amino]ethyl]-2,2-dimethylpropanamid] | 
13 | 20 | O=C(NCCNCc1cc2ccc(OCc3ccccc3)cc2o1)C12CC3CC(CC(C3)C1)C2 [Example 12, N-[2-[[(6-Phenylmethoxy-2-benzofuranyl)methyl]amino]ethyl]tricyclo[3.3.1.1^3,7]decane-1-carboxamide] | 
14 | 95 | O=C(NCCNCc1cc2cccc(F)c2o1)C12CC3CC(CC(C3)C1)C2 [Example 13, N-[2-[[(7-Fluoro-2-benzofuranyl)methyl]amino]ethyl]tricyclo[3.3.1.1^3,7]decane-1-carboxamide] | 
15 | 64 | O=C(NCCNCc1cc2cc(O)ccc2o1)C12CC3CC(CC(C3)C1)C2 [Example 15, N-[2-[[(5-Hydroxy-2-benzofuranyl)methyl]amino]ethyl]tricyclo[3.3.1.1^3,7]decane-1-carboxamide] | 
16 | 97 | O=C(NCCNCc1cc2cccc(Cl)c2o1)C12CC3CC(CC(C3)C1)C2 [Example 16, N-[2-[[(7-Chloro-2-benzofuranyl)methyl]amino]ethyl]tricyclo[3.3.1.1^3,7]decane-1-carboxamide] | 
17 | 88 | O=C(NCCNCc1cc2ccc(O)cc2o1)C12CC3CC(CC(C3)C1)C2 [Example 17, N-[2-[[(6-Hydroxy-2-benzofuranyl)methyl]amino]ethyl]tricyclo[3.3.1.1^3,7]decane-1-carboxamide] | 
18 |  | O=C1CC2(CCCC2)CC(=O)N1CCCCNCC1COc2ccccc2O1 (stereo not shown) [MDL 72832, 8-[4-(1,4-benzodioxan-2-ylmethylamino)butyl]-8-azaspiro[4.5]decane-7,9-dione] | 5-HT1A receptor ligand character (in words) (5-HT1A receptor): selective and stereospecific
19 |  | O=C1CC2(CCCC2)CC(=O)N1CCCCN1CCN(c2ncccn2)CC1 [buspirone] | affinity for the serotonin 5-HT1A receptor (in words) [2]: high affinity; also recorded: potent affinity; ED50 (serotonin syndrome; 0.25 h, agonist activity, first 15 minutes after administration, read-out: ED50, produced the serotonin syndrome): 7.3 mg/kg; ED50 (serotonin syndrome; antagonist activity, challenge with 5-MeODMT, read-out: ED50, antagonized 5-MeODMT-induced syndrome): 4.6 mg/kg; characterization in the serotonin syndrome test (serotonin syndrome; in words): partial agonist
